Measurements reported in patent US7906507B2, “Oxadiazoanthracene compounds for the treatment of diabetes” (TransTech Pharma, Inc., priority 2008, dated 2011).

Biological target: T1, cloned human GLP-1 receptor (Homo sapiens, UniProt P43220)
T1 construct: expressed in transfected cells; host or cells: CHO or HEK-293 cells
Test: Functional cell-based assay: cAMP functional assay
Settings: for Emax: 0.5 h, percentage relative to maximal GLP-1-induced cAMP accumulation, na = not active in the assay, read-out: % activation
Method: Following overnight incubation of cells, media was removed, and compounds (at concentrations ranging from 0.0001 to 100 μM) were added to monolayer cells in Iscove's modified dulbecco's medium (IMDM), 100 μM RO 20-1724 PDE inhibitor, 0.1% BSA, 2% DMSO in a final volume of 100 μL, and incubated for 30 min at 37° C. 95% O2, 5% CO2 in a humidified incubator. cAMP was quantitated using a homogenous time-resolved fluorescence detection system (cAMP dynamic, CIS bio International).

T1 sequence (P43220 24-463): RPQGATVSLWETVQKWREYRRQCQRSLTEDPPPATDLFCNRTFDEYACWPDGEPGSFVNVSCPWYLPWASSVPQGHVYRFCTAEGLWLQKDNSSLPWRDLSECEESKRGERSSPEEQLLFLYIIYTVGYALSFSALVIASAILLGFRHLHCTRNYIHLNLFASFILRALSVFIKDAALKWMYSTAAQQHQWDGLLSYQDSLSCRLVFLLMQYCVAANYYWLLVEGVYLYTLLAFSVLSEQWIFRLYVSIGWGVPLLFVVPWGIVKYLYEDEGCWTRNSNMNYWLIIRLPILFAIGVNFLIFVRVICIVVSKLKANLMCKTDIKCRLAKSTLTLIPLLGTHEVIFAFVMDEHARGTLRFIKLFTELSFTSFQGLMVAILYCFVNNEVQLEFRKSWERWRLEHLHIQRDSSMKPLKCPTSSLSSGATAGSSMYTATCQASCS

Structure (SMILES) | EC50 [nM] | Emax [%]
N#Cc1ccc(-c2ccc(C[C@H](NC(=O)[C@@H]3Cc4cc5c(cc4CN3C(=O)c3ccccc3)OC(c3ccc(OCc4cc(Cl)ccc4Cl)cc3)C(=O)N5)C(=O)O)cc2)cc1 (stereo partly drawn) [Example 58, (S)-2-({(S)-6-Benzoyl-3-[4-(2,5-dichloro-benzyloxy)-phenyl]-2-oxo-2,3,5,6,7,8-hexahydro-1H-4-oxa-1,6-diaza-anthracene-7-carbonyl}-amino)-3-(4′-cyano-biphenyl-4-yl)-propionic acid] | 565 | 45
N#Cc1ccc(-c2ccc(C[C@H](NC(=O)[C@@H]3Cc4cc5c(cc4CN3S(=O)(=O)c3ccccc3)OC(c3ccc(OCc4ccc(Cl)c(Cl)c4)cc3)C(=O)N5)C(=O)O)cc2)cc1 (stereo partly drawn) [Example 14, (S)-2-({(S)-6-Benzenesulfonyl-3-[4-(3,4-dichloro-benzyloxy)-phenyl]-2-oxo-2,3,5,6,7,8-hexahydro-1H-4-oxa-1,6-diaza-anthracene-7-carbonyl}-amino)-3-(4′-cyano-biphenyl-4-yl)-propionic acid] | 450 | 77
Cc1cc(C(=O)N2Cc3cc4c(cc3C[C@H]2C(=O)N[C@@H](Cc2ccc(-c3ccc(C#N)cc3)cc2)C(=O)O)NC(=O)C(c2ccc(OCc3ccc(Cl)c(Cl)c3)cc2)O4)no1 (stereo partly drawn) [Example 31, (S)-3-(4′-Cyano-biphenyl-4-yl)-2-{[(S)-3-[4-(3,4-dichloro-benzyloxy)-phenyl]-6-(5-methyl-isoxazole-3-carbonyl)-2-oxo-2,3,5,6,7,8-hexahydro-1H-4-oxa-1,6-diaza-anthracene-7-carbonyl]-amino}-propionic acid] | 1000 | 13
CC[C@@H](c1ccccc1)N1Cc2cc3c(cc2C[C@H]1C(=O)N[C@@H](Cc1ccc(-c2ccc(F)cc2)cc1)C(=O)O)N(C)C(=O)[C@@H](c1ccc(OCc2ccc(Cl)c(Cl)c2)cc1)O3 [Example 92, (S)-2-{[(3R,7S)-3-[4-(3,4-Dichloro-benzyloxy)-phenyl]-1-methyl-2-oxo-6-((S)-1-phenyl-propyl)-2,3,5,6,7,8-hexahydro-1H-4-oxa-1,6-diaza-anthracene-7-carbonyl]-amino}-3-(4′-fluoro-biphenyl-4-yl)-propionic acid] | 723 | 30
CC(C)(C)COC(=O)N1Cc2cc3c(cc2C[C@H]1C(=O)N[C@@H](Cc1ccc(-c2ccc(C#N)cc2)cc1)C(=O)O)NC(=O)C(c1ccc(OCc2ccc(Cl)c(Cl)c2)cc1)O3 (stereo partly drawn) [Example 10, (S)-7-[(S)-1-Carboxy-2-(4′-cyano-biphenyl-4-yl)-ethylcarbamoyl]-3-[4-(3,4-dichloro-benzyloxy)-phenyl]-2-oxo-1,2,3,5,7,8-hexahydro-4-oxa-1,6-diaza-anthracene-6-carboxylic acid 2,2-dimethyl-propyl ester] | 418 | 51
CC(=O)Nc1nc(C)c(S(=O)(=O)N2Cc3cc4c(cc3C[C@H]2C(=O)N[C@@H](Cc2ccc(-c3ccc(C#N)cc3)cc2)C(=O)O)NC(=O)C(c2ccc(OCc3ccc(Cl)c(Cl)c3)cc2)O4)s1 (single isomer, unassigned) [Example 81] | 70 | 25
CN1C(=O)C(c2ccc(OCc3ccc(Cl)c(Cl)c3)cc2)Oc2cc3c(cc21)C[C@@H](C(=O)N[C@@H](Cc1ccc(-c2ccc(C#N)cc2)cc1)C(=O)O)N(C1CCC1)C3 (stereo partly drawn) [Example 76, (S)-3-(4′-Cyano-biphenyl-4-yl)-2-({(S)-6-cyclobutyl-3-[4-(3,4-dichloro-benzyloxy)-phenyl]-1-methyl-2-oxo-6(1-phenyl-cyclopentylmethyl)-2,3,5,6,7,8-hexahydro-1H-4-oxa-1,6-diaza-anthracene-7-carbonyl}-amino)-propionic acid] | 1140 | 8.12
N#Cc1ccc(-c2ccc(C[C@H](NC(=O)[C@@H]3Cc4cc5c(cc4CN3CC3CC3)OC(c3ccc(OCc4ccc(Cl)c(Cl)c4)cc3)C(=O)N5)C(=O)O)cc2)cc1 (stereo partly drawn) [Example 54, (S)-3-(4′-Cyano-biphenyl-4-yl)-2-({(S)-6cyclopropylmethyl-3-[4-(3,4-dichloro-benzyloxy)-phenyl]-2-oxo-2,3,5,6,7,8-hexahydro-1H-4-oxa-1,6-diaza-anthracene-7-carbonyl}-amino)-propionic acid] | 1080 | 11.8
CSc1nc(CN2Cc3cc4c(cc3C[C@H]2C(=O)N[C@@H](Cc2ccc(-c3ccc(C#N)cc3)cc2)C(=O)O)NC(=O)C(c2ccc(OCc3ccc(Cl)c(Cl)c3)cc2)O4)ccc1C#N (stereo partly drawn) [Example 46, (S)-3-(4′-Cyano-biphenyl-4-yl)-2-({(S)-6-(5-cyano-6-methylsulfanyl-pyridin-2-ylmethyl)-3-[4-(3,4-dichloro-benzyloxy)-phenyl]-2-oxo-2,3,5,6,7,8-hexahydro-1H-4-oxa-1,6-diaza-anthracene-7-carbonyl}-amino)-propionic acid] | 1000 | 22
CC(c1ccccc1)N1Cc2cc3c(cc2C[C@H]1C(=O)N[C@@H](Cc1ccc(-c2ccc(C#N)cc2)cc1)C(=O)O)N(C)C(=O)C(c1ccc(OCc2ccc(Cl)c(Cl)c2)cc1)O3 (stereo partly drawn) [Example 80, (S)-3-(4′-Cyano-biphenyl-4-yl)-2-{[(S)-3-[4-(3,4-dichloro-benzyloxy)-phenyl]-1-methyl-2-oxo-6-(1-phenyl-ethyl)-2,3,5,6,7,8-hexahydro-1H-4-oxa-1,6-diaza-anthracene-7-carbonyl]-amino}-propionic acid] | 66 | 16
N#Cc1ccc(-c2ccc(C[C@H](NC(=O)[C@@H]3Cc4cc5c(cc4CN3Cc3cccs3)OC(c3ccc(OCc4ccc(Cl)c(Cl)c4)cc3)C(=O)N5)C(=O)O)cc2)cc1 (stereo partly drawn) [Example 40] | 1200 | 34
O=C1Nc2cc3c(cc2OC1c1ccc(OCc2ccc(Cl)c(Cl)c2)cc1)CN(C(=O)c1ccccc1)[C@H](C(=O)N[C@@H](Cc1ccc(-c2ccc(Cl)cc2)cc1)C(=O)O)C3 (stereo partly drawn) [Example 84, (S)-2-({(S)-6-Benzoyl-3-[4-(3,4-dichloro-benzyloxy)-phenyl]-2-oxo-2,3,5,6,7,8-hexahydro-1H-4-oxa-1,6-diaza-anthracene-7-carbonyl}-amino)-3-(4′-chloro-biphenyl-4-yl)-propionic acid] | 920 | 43
N#Cc1ccc(-c2ccc(C[C@H](NC(=O)[C@@H]3Cc4cc5c(cc4CN3C(=O)N3CCCCC3)OC(c3ccc(OCc4ccc(Cl)c(Cl)c4)cc3)C(=O)N5)C(=O)O)cc2)cc1 (stereo partly drawn) [Example 17, (S)-3-(4′-Cyano-biphenyl-4-yl)-2-{[(S)-3-[4-(3,4-dichloro-benzyloxy)-phenyl]-2-oxo-6-(piperidine-1-carbonyl)-2,3,5,6,7,8-hexahydro-1H-4-oxa-1,6-diaza-anthracene-7-carbonyl]-amino}-propionic acid] | 699 | 80
N#Cc1ccc(-c2ccc(C[C@H](NC(=O)[C@@H]3Cc4cc5c(cc4CN3C(=O)c3ccccc3)OC(c3ccc(OCc4cccc(Cl)c4)cc3)C(=O)N5)C(=O)O)cc2)cc1 (stereo partly drawn) [Example 59, (S)-2-({(S)-6-Benzoyl-3-[4-(3-chloro-benzyloxy)-phenyl]-2-oxo-2,3,5,6,7,8-hexahydro-1H-4-oxa-1,6-diaza-anthracene-7-carbonyl}-amino)-3-(4′-cyano-biphenyl-4-yl)-propionic acid] | 750 | 52
N#Cc1ccc(-c2ccc(C[C@H](NC(=O)[C@@H]3Cc4cc5c(cc4CN3C(=O)OCC3CC3)OC(c3ccc(OCc4ccc(Cl)c(Cl)c4)cc3)C(=O)N5)C(=O)O)cc2)cc1 (stereo partly drawn) [Example 18, (S)-7-[(S)-1-Carboxy-2-(4′-cyano-biphenyl-4-yl)-ethylcarbamoyl]-3-[4-(3,4-dichloro-benzyloxy)-phenyl]-2-oxo-1,2,3,5,7,8-hexahydro-4-oxa-1,6-diaza-anthracene-6-carboxylic acid cyclopropylmethyl ester] | 270 | 74.7
N#Cc1ccc(-c2ccc(C[C@H](NC(=O)[C@@H]3Cc4cc5c(cc4CN3Cc3ccccc3)OC(c3ccc(OCc4cnc(Cl)c(Cl)c4)cc3)C(=O)N5)C(=O)O)cc2)cc1 (stereo partly drawn) [Example 65, (S)-2-({(8)-6-Benzyl-3-[4-(5,6-dichloro-pyridin-3-ylmethoxy)-phenyl]-2-oxo-2,3,5,6,7,8-hexahydro-1H-4-oxa-1,6-diaza-anthracene-7-carbonyl}-amino)-3-(4′-cyano-biphenyl-4-yl)-propionic acid] | 220 | 32
CC[C@@H](c1ccccc1)N1Cc2cc3c(cc2C[C@H]1C(=O)N[C@@](C)(Cc1ccc(-c2ccc(C#N)cc2)cc1)C(=O)O)N(C)C(=O)C(c1ccc(OCc2ccc(Cl)c(Cl)c2)cc1)O3 (stereo in doubt) [Example 97, (S)-3-(4′-Cyano-biphenyl-4-yl)-2-{[(S)-3-[4-(3,4-dichloro-benzyloxy)-phenyl]-1-methyl-2-oxo-6-((S)-1-phenyl-propyl)-2,3,5,6,7,8-hexahydro-1H-4-oxa-1,6-diaza-anthracene-7-carbonyl]-amino}-2-methyl-propionic acid] | 38.2 | 38
Cc1ccccc1S(=O)(=O)N1Cc2cc3c(cc2C[C@H]1C(=O)N[C@@H](Cc1ccc(-c2ccc(C#N)cc2)cc1)C(=O)O)NC(=O)C(c1ccc(OCc2ccc(Cl)c(Cl)c2)cc1)O3 (stereo partly drawn) [Example 37, (S)-3-(4′-Cyano-biphenyl-4-yl)-2-{[(S)-3-[4-(3,4-dichloro-benzyloxy)-phenyl]-2-oxo-6-(toluene-2-sulfonyl)-2,3,5,6,7,8-hexahydro-1H-4-oxa-1,6-diaza-anthracene-7-carbonyl]-amino}-propionic acid] | 490 | 32
